Patent publication US20020082419A1, “2,4-pentadienoic acid derivatives having retinoid-like biological activity” (Allergan Sales, Inc., priority 1995, published 2002)
pEC50, pKd: −log10 of the molar value.

Key:
RARΓ = molecular target: T1, RARΓ (Homo sapiens, UniProt P13631); test: Holoreceptor transactivation assay, RARΓ; assay type: cell-based; conditions: for pEC50: CV1 cells, luciferase reporter, 36 hours incubation; for Transactivation Assay Afficacy (% of RA activity) RARΓ: relative to all trans retinoic acid
T1 construct: expressed in transfected cells; host or cells: CV1 cells
T1 sequence (P13631 1-454): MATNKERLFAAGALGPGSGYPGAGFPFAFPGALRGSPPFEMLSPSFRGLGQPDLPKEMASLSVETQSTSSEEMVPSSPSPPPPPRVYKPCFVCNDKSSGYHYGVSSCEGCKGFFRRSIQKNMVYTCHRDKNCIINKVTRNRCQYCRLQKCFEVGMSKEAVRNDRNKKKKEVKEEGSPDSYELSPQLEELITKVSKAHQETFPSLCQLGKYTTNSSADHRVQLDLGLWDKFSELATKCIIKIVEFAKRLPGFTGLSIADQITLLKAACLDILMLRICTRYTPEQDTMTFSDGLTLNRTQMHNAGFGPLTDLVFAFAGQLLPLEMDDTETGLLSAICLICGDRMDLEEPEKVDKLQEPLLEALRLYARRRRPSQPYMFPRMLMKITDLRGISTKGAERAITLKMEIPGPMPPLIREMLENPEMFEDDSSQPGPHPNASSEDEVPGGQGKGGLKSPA
Method: (§1) A description of the holoreceptor transactivation assay is also provided below.
(§2) (8). […] (8, 9). […] A β-galactosidase (50 ng) expression vector was used as an internal control in the transfections to normalize for variations in transfection efficiency. The cells were transfected in triplicate for 6 hours, followed by incubation with retinoids for 36 hours, and the extracts were assayed for luciferase and β-galactosidase activities. The detailed experimental procedure for holoreceptor transactivations has been described in Heyman et al. above, and Allegretto et al. cited above. […] The results of ligand binding assay are expressed in KD50 numbers.

RXRα [1] = molecular target: T2, RXRα (Homo sapiens, UniProt P19793); test: Ligand binding assay, RXRα; conditions: read-out: Ligand Binding Assay KD50 RXRα
T2 construct: expressed in transfected cells; host or cells: CV1 cells
T2 sequence (P19793 1-462): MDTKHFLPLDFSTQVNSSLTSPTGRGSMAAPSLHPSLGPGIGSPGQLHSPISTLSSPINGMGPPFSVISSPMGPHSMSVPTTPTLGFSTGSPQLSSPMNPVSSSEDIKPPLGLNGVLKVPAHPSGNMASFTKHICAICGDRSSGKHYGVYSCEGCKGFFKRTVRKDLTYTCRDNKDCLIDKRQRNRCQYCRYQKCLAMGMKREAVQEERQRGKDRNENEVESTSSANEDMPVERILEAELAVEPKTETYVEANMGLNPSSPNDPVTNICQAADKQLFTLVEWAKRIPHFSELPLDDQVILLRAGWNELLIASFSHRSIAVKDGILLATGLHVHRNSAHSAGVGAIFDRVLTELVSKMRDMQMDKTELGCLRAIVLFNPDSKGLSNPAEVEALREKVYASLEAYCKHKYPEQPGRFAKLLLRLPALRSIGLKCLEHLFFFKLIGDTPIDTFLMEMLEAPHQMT
Excerpt: (§3) A holoreceptor transactivation assay and a ligand binding assay which measure the agonist like activity of the compounds of the invention, or their ability to bind to the several retinoid receptor sub-types, respectively, are described in published PCT Application No. WO WO93/11755 (particularly on pages 30-33 and 37-41) published on Jun. 24, 1993, the specification of which is also incorporated herein by reference. A description of the holoreceptor transactivation assay is also provided below.
CV1 cells (5,000 cells/well) were transfected with an RAR reporter plasmid ▴MTV-TREp-LUC (50 ng) along with one of the RAR expression vectors (10 ng) in an automated 96-well format by the calcium phosphate procedure of Heyman et al. Cell 68, 397-406. (8). For RXR transactivation assays, an RXR-responsive reporter plasmid CRBP II-TK-LUC (50 ng) along with one of the RXR expression vectors (10 ng) was used substantially as described by Heyman et al. above, and Allegretto et al. J. Biol. Chem. 268, 26625-26633. (8, 9). RXR-reporter contained DRI elements from human CRBP II promoter (see Mangelsdorf et al. The Retinoids: Biology, Chemistry and Medicine, pp 319-349, Raven Press Ltd., New York and Heyman et al., cited above) (1, 8). A β-galactosidase (50 ng) expression vector was used as an internal control in the transfections to normalize for variations in transfection efficiency. The cells were transfected in triplicate for 6 hours, followed by incubation with retinoids for 36 hours, and the extracts were assayed for luciferase and β-galactosidase activities. The detailed experimental procedure for holoreceptor transactivations has been described in Heyman et al. above, and Allegretto et al. cited above. The results obtained in this assay in connection with examplary compounds in accordance with the present invention are expressed in EC50 numbers, as they are also in the chimeric receptor transactivation assay. […]

RXRα [2] = molecular target: T2, RXRα; test: Holoreceptor transactivation assay, RXRα; assay type: cell-based; conditions: for pEC50: CV1 cells, luciferase reporter, 36 hours incubation; for Transactivation Assay Afficacy (% of RA activity) RXRα: relative to all trans retinoic acid
Excerpt: as §3
CV1 cells (5,000 cells/well) were transfected with an RAR reporter plasmid ▴MTV-TREp-LUC (50 ng) along with one of the RAR expression vectors (10 ng) in an automated 96-well format by the calcium phosphate procedure of Heyman et al. Cell 68, 397-406. (8). For RXR transactivation assays, an RXR-responsive reporter plasmid CRBP II-TK-LUC (50 ng) along with one of the RXR expression vectors (10 ng) was used substantially as described by Heyman et al. above, and Allegretto et al. J. Biol. Chem. 268, 26625-26633. (8, 9). RXR-reporter contained DRI elements from human CRBP II promoter (see Mangelsdorf et al. The Retinoids: Biology, Chemistry and Medicine, pp 319-349, Raven Press Ltd., New York and Heyman et al., cited above) (1, 8). A β-galactosidase (50 ng) expression vector was used as an internal control in the transfections to normalize for variations in transfection efficiency. The cells were transfected in triplicate for 6 hours, followed by incubation with retinoids for 36 hours, and the extracts were assayed for luciferase and β-galactosidase activities. The detailed experimental procedure for holoreceptor transactivations has been described in Heyman et al. above, and Allegretto et al. cited above. The results obtained in this assay in connection with examplary compounds in accordance with the present invention are expressed in EC50 numbers, as they are also in the chimeric receptor transactivation assay. The Heyman et al. Cell 68, 397-406, Allegretto et al. J. Biol. Chem. 268, 26625-26633, and Mangelsdorf et al. The Retinoids: Biology, Chemistry and Medicine, pp 319-349, Raven Press Ltd., New York, are expressly incorporated herein by reference. The results of ligand binding assay are expressed in KD50 numbers.

RARβ = molecular target: T3, RARβ (Homo sapiens, UniProt P10826); test: Holoreceptor transactivation assay, RARβ; assay type: cell-based; conditions: for pEC50: CV1 cells, luciferase reporter, 36 hours incubation; for Transactivation Assay Afficacy (% of RA activity) RARβ: relative to all trans retinoic acid
T3 construct: expressed in transfected cells; host or cells: CV1 cells
T3 sequence (P10826 1-455): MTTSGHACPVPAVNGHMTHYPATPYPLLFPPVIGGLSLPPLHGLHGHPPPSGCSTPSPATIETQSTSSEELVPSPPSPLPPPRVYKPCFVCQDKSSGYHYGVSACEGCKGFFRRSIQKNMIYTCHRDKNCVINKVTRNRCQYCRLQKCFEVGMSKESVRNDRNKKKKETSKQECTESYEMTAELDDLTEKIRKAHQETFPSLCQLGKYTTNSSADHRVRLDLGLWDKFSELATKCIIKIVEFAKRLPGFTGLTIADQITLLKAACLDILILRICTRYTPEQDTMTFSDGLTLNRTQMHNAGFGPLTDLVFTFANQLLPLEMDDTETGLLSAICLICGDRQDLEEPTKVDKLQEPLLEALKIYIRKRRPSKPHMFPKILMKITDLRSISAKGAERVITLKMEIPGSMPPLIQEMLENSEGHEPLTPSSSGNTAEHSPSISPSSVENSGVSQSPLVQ
Method: as §1, §2

RXRΓ = molecular target: T4, RXRΓ (Mus musculus, UniProt P28705); test: Holoreceptor transactivation assay, RXRΓ; assay type: cell-based; conditions: for pEC50: CV1 cells, luciferase reporter, 36 hours incubation; for Transactivation Assay Afficacy (% of RA activity) RXRΓ: relative to all trans retinoic acid
T4 construct: expressed in transfected cells; host or cells: CV1 cells
T4 sequence (P28705 1-463): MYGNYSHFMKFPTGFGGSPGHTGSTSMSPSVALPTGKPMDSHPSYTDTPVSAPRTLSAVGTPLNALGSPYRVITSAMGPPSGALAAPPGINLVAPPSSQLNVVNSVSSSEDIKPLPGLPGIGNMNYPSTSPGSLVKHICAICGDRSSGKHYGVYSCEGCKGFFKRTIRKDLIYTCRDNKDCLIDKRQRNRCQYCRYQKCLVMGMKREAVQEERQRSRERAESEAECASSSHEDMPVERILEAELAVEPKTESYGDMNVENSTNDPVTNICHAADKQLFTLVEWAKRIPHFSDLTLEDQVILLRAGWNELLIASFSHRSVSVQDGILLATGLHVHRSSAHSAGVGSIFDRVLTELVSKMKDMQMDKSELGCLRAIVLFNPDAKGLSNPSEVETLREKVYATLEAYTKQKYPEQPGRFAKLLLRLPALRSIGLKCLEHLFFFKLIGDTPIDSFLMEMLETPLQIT
Method: as §1, §2

RXRβ = molecular target: T5, RXRβ (Mus musculus, UniProt P28704); test: Holoreceptor transactivation assay, RXRβ; assay type: cell-based; conditions: relative to all trans retinoic acid; read-out: Transactivation Assay Afficacy (% of RA activity) RXRβ
T5 sequence (P28704 1-520): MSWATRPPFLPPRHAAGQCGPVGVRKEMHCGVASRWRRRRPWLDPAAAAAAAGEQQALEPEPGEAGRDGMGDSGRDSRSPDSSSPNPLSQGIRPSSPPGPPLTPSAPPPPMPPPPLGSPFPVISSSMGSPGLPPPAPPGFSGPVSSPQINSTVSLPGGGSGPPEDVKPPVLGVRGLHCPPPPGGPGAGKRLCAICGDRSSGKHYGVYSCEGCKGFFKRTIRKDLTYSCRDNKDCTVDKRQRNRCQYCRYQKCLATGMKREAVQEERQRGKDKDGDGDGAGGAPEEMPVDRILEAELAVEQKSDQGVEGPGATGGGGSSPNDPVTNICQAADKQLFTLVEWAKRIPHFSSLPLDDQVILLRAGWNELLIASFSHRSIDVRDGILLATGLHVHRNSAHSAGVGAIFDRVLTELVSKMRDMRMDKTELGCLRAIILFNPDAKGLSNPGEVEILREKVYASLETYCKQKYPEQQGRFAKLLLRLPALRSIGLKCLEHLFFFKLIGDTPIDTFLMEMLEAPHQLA
Method: as §1, §2

RARα = molecular target: T6, RARα (Homo sapiens, UniProt P10276); test: Holoreceptor transactivation assay, RARα; assay type: cell-based; conditions: for pEC50: CV1 cells, luciferase reporter, 36 hours incubation; for Transactivation Assay Afficacy (% of RA activity) RARα: relative to all trans retinoic acid
T6 construct: expressed in transfected cells; host or cells: CV1 cells
T6 sequence (P10276 1-462): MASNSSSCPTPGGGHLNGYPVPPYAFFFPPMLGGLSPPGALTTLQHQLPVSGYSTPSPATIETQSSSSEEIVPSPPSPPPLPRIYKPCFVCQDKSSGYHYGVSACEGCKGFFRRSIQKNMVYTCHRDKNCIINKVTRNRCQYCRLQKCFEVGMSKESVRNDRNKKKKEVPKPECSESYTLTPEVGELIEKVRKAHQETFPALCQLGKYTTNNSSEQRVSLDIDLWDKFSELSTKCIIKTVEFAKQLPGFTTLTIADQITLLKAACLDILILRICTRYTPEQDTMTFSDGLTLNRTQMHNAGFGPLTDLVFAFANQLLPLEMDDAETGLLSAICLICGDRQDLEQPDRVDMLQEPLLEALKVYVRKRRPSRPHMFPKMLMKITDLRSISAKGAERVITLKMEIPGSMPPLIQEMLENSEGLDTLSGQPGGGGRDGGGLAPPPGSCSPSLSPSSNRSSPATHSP
Method: as §1, §2

Row | pEC50 (RARΓ) | Transactivation Assay Afficacy (% of RA activity) RARΓ (RARΓ) | pKd (RXRα [1]) | pEC50 (RXRα [2]) | Transactivation Assay Afficacy (% of RA activity) RXRα (RXRα [2]) | pEC50 (RARβ) | Transactivation Assay Afficacy (% of RA activity) RARβ (RARβ) | pEC50 (RXRΓ) | Transactivation Assay Afficacy (% of RA activity) RXRΓ (RXRΓ) | Emax (RXRβ) [%] | pEC50 (RARα) | Transactivation Assay Afficacy (% of RA activity) RARα (RARα) | SMILES
1 | < 6.00 | 8.0 % of RA activity | 7.15 | 6.89 | 55.0 % of RA activity | < 6.00 | 3.0 % of RA activity | 7.15 | 40.0 % of RA activity | 72 | < 6.00 | 0.0 % of RA activity | CC(C=CC1CC1(C)c1cc2c(cc1C)C(C)(C)CCC2(C)C)=CC(=O)O (stereo not drawn) [Compound 13, 3,7-Dimethyl,6(RS),7(SR) methano-7-(3,5,5,8,8-pentamethyl-5,6,7,8-tetrahydronaphth-2-yl),2(E),4(E)-heptadienoic Acid]
2 | 6.57 | 41 % of RA activity | 8.52 | 7.52 | 111 % of RA activity | 7.32 | 29 % of RA activity | 7.89 | 73 % of RA activity | 118 | 5.92 | 30 % of RA activity | CC(C=CC1CC1(C)c1ccc2c(c1)C(C)(C)CCS2)=CC(=O)O (stereo not drawn) [Compound 17, 3,7-Dimethyl,6(RS),7(SR) methano-7-(4,4-dimethylthiochroman-6-yl) 2(E),4(E)-heptadienoic Acid]
